Assay results published in US9340590B2 (priority 2011, dated 2016).
Like-named read-outs stand apart in the source and are kept apart here. Positions of bridges follow the written chain, without caps; N, C: chain ends. Non-standard residues stand in square brackets, D forms with d. Residues, ends and D or L forms follow the SMILES beside them. Phe(4-COOH) = N[C@@H](Cc1ccc(C(=O)O)cc1)C(=O)O; Cha = N[C@@H](CC1CCCCC1)C(=O)O

Columns and labels:
Test in all cases: cell-based
hNav1.7 = hNav1.7 (Homo sapiens, UniProt Q15858); format: cell-based; conditions: IonWorks Quattro, read-out: IWQ Use Nav1.7
hNav1.5 = hNav1.5 (Homo sapiens, UniProt Q14524)
Sequence of hNav1.5 (Q14524 whole entry, looked up): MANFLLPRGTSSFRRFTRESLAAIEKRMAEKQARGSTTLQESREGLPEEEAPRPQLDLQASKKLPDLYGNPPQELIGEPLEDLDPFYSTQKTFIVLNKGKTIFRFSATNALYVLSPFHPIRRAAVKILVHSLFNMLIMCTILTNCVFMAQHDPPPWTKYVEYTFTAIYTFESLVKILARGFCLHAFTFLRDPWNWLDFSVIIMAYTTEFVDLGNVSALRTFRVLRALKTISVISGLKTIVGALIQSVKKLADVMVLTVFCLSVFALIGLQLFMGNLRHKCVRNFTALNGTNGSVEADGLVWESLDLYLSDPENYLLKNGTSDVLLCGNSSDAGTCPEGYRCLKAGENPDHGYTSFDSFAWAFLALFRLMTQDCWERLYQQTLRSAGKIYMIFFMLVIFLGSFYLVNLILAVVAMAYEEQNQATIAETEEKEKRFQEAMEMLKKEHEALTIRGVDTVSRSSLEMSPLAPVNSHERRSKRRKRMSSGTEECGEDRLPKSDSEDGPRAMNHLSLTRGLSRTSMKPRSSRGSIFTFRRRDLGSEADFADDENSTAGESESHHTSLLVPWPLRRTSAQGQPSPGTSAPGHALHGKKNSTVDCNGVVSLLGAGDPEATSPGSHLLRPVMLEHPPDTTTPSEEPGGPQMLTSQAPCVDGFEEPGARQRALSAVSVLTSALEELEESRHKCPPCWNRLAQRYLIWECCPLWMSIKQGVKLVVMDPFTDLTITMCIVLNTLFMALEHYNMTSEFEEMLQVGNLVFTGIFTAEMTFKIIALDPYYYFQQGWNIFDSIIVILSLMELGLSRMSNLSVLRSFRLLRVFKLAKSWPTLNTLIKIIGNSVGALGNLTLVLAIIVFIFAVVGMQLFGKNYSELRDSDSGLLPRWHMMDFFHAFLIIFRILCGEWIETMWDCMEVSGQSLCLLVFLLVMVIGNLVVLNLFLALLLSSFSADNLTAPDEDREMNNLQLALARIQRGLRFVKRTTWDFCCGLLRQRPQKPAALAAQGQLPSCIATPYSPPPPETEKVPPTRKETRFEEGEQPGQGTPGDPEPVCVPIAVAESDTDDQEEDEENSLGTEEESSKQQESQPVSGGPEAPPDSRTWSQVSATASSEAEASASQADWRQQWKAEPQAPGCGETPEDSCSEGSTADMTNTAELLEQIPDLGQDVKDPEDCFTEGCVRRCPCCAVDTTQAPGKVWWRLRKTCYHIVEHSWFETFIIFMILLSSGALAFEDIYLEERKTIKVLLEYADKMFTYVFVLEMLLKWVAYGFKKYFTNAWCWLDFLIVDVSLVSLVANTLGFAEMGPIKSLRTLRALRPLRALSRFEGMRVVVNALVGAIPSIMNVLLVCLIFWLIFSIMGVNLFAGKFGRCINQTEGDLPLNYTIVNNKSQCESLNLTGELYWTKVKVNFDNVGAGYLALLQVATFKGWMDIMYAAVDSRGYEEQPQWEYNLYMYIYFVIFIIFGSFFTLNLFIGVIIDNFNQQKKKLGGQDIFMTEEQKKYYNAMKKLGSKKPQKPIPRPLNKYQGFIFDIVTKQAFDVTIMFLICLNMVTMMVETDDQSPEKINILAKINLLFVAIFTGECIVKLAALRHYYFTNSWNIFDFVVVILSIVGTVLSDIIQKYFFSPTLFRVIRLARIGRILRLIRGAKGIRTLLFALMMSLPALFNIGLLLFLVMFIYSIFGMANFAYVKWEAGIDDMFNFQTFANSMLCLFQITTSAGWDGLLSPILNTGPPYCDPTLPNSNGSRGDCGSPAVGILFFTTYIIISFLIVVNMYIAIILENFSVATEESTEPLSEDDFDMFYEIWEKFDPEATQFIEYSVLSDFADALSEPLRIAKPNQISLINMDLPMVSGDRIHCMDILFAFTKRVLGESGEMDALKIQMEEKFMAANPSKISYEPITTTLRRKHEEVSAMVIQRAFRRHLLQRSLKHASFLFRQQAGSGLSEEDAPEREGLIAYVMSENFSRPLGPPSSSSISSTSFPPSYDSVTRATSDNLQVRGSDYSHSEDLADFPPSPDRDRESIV

hNav1.3 = hNav1.3 (Homo sapiens, UniProt Q9NY46); conditions: IonWorks Quattro, read-out: IWQ Use Nav1.3
Sequence of hNav1.3 (Q9NY46 whole entry, looked up): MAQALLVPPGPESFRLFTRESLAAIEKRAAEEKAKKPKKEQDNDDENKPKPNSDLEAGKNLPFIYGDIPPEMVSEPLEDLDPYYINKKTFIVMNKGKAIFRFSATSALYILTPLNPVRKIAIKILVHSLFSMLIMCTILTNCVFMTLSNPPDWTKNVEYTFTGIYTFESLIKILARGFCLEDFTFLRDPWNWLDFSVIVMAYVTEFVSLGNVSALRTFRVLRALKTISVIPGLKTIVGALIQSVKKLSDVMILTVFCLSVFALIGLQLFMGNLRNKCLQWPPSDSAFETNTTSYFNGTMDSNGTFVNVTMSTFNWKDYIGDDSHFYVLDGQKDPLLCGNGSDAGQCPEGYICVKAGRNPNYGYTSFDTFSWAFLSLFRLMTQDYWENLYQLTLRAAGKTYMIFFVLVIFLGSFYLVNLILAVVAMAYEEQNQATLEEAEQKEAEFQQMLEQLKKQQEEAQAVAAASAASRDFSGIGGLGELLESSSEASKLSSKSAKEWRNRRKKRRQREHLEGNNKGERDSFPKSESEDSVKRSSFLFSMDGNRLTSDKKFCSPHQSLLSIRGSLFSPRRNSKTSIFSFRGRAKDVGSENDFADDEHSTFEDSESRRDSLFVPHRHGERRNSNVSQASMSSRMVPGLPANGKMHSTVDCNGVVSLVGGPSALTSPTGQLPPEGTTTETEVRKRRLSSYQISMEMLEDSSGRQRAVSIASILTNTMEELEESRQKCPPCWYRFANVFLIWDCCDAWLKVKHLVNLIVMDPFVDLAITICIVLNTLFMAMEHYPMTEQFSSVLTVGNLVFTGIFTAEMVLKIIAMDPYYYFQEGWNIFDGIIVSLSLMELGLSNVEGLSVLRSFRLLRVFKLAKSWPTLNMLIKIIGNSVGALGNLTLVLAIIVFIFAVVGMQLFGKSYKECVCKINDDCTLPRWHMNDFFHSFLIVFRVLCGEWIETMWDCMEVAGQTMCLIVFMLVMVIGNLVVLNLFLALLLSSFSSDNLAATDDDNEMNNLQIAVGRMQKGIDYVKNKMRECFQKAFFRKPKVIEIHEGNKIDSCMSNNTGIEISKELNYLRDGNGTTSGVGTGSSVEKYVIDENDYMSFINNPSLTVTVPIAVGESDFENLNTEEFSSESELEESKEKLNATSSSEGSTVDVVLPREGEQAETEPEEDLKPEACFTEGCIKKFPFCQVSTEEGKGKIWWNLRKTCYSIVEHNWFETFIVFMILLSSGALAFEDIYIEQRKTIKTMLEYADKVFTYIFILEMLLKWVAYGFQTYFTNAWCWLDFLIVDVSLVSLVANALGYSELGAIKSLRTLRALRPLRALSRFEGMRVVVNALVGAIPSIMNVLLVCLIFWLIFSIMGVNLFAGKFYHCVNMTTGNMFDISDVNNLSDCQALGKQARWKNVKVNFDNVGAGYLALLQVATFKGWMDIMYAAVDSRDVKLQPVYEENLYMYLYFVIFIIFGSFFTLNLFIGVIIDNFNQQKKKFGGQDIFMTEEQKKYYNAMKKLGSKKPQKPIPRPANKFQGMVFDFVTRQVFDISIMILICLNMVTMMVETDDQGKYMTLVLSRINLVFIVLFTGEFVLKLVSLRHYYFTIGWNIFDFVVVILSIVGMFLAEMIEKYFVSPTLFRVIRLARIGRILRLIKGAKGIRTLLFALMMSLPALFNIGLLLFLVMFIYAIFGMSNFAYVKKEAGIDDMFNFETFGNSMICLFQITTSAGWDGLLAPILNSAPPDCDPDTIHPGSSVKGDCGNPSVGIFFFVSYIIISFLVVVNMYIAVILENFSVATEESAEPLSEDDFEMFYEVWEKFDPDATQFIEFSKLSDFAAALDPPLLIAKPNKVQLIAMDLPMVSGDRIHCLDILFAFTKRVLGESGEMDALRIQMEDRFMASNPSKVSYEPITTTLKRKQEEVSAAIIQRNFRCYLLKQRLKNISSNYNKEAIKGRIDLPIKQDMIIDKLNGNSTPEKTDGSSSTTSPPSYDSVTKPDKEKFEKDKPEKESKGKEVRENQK

[1] = IonWorks Quattro, Use, read-out: IWQ Use Nav1.5

SMILES | IC50 (hNav1.7; Use) [µM] | IC50 (hNav1.5; [1]) [µM] | IC50 (hNav1.3; Use) [µM] | further results
CC[C@H](C)[C@@H]1NC(=O)[C@@H]2CSSC[C@@H]3NC(=O)[C@H](CC(=O)O)NC(=O)[C@H](CC(C)C)NC(=O)[C@H](CC(N)=O)NC(=O)[C@@H]4CCCN4C(=O)[C@H](CCCNC(=N)N)NC(=O)[C@H](CSSC[C@H](NC(=O)[C@@H](N)CC(=O)O)C(=O)N[C@@H](CC(C)C)C(=O)NCC(=O)N[C@@H](Cc4ccccc4)C(=O)N[C@@H](CCSC)C(=O)N[C@@H](CCCNC(=N)N)C(=O)N[C@@H](CCCCN)C(=O)N2)NC(=O)[C@H](CSSC[C@@H](C(=O)N[C@@H](CCCCN)C(=O)N[C@@H](Cc2ccc(O)cc2)C(=O)N[C@H](C(=O)N[C@@H](Cc2ccccc2)C(N)=O)C(C)C)NC(=O)[C@H](Cc2c[nH]c4ccccc24)NC(=O)[C@H](CCCCN)NC(=O)[C@H](Cc2c[nH]cn2)NC(=O)[C@H]([C@@H](C)O)NC(=O)[C@H](CCCNC(=N)N)NC(=O)[C@H](CO)NC3=O)NC(=O)[C@H](CCCCN)NC(=O)[C@H](CC(=O)O)NC(=O)[C@H](CC(N)=O)NC(=O)[C@H](CC(=O)O)NC(=O)[C@@H]2CCCN2C1=O [compound 327] (H-DCLGFMRKCIPDNDKCCRPNLDCSRTHKWCKYVF-NH2; disulfide 2-17, 9-23, 16-30) | 1.5 | 13.3 | 0.63 | 
CC[C@H](C)[C@@H]1NC(=O)[C@@H]2CSSC[C@@H]3NC(=O)[C@H](C(C)C)NC(=O)[C@H](CC(C)C)NC(=O)[C@H](CC(N)=O)NC(=O)[C@@H]4CCCN4C(=O)[C@H](CCCNC(=N)N)NC(=O)[C@H](CSSC[C@H](NC(=O)[C@@H](N)CC(=O)O)C(=O)N[C@@H](CC(C)C)C(=O)NCC(=O)N[C@@H](Cc4ccccc4)C(=O)N[C@@H](CCSC)C(=O)N[C@@H](CCCNC(=N)N)C(=O)N[C@@H](CCCCN)C(=O)N2)NC(=O)[C@H](CSSC[C@@H](C(=O)N[C@@H](CCCCN)C(=O)N[C@@H](Cc2ccc(O)cc2)C(=O)N[C@@H](CC2CCCCC2)C(=O)N[C@@H](Cc2ccccc2)C(N)=O)NC(=O)[C@H](Cc2c[nH]c4ccccc24)NC(=O)[C@H](CCCCN)NC(=O)[C@H](Cc2c[nH]cn2)NC(=O)[C@H]([C@@H](C)O)NC(=O)[C@H](CCCNC(=N)N)NC(=O)[C@H](CO)NC3=O)NC(=O)[C@H](CCCCN)NC(=O)[C@H](CC(=O)O)NC(=O)[C@H](CC(N)=O)NC(=O)[C@H](CC(=O)O)NC(=O)[C@@H]2CCCN2C1=O [compound 386] (H-DCLGFMRKCIPDNDKCCRPNLVCSRTHKWCKY[Cha]F-NH2; disulfide 2-17, 9-23, 16-30) |  |  |  | IC50 (hNav1.7; Table 26, use, […]): 0.07 µM; IC50 (hNav1.5; Table 26, IonWorks Quattro, use, […], read-out: IWQ Use Nav1.5): 12.2 µM; IC50 (hNav1.3; Table 26, use, […]): 0.07 µM
CC[C@H](C)[C@@H]1NC(=O)[C@@H]2CSSC[C@@H]3NC(=O)[C@H](C(C)C)NC(=O)[C@H](CC(C)C)NC(=O)[C@H](CC(N)=O)NC(=O)[C@@H]4CCCN4C(=O)[C@H](CCCNC(=N)N)NC(=O)[C@H](CSSC[C@H](NC(=O)[C@@H](N)CC(=O)O)C(=O)N[C@@H](CC(C)C)C(=O)NCC(=O)N[C@@H](C)C(=O)N[C@@H](CCSC)C(=O)N[C@@H](CCCNC(=N)N)C(=O)N[C@@H](CCCCN)C(=O)N2)NC(=O)[C@H](CSSC[C@@H](C(=O)N[C@@H](CCCCN)C(=O)N[C@@H](Cc2ccc(O)cc2)C(=O)N[C@H](C(=O)N[C@@H](Cc2ccccc2)C(N)=O)C(C)C)NC(=O)[C@H](Cc2c[nH]c4ccccc24)NC(=O)[C@H](CC(=O)O)NC(=O)[C@H](Cc2c[nH]cn2)NC(=O)[C@H]([C@@H](C)O)NC(=O)[C@H](CCCNC(=N)N)NC(=O)[C@H](CO)NC3=O)NC(=O)[C@H](CCCCN)NC(=O)[C@H](CC(=O)O)NC(=O)[C@H](CC(N)=O)NC(=O)[C@H](CC(=O)O)NC(=O)[C@@H]2CCCN2C1=O [compound 769] (H-DCLGAMRKCIPDNDKCCRPNLVCSRTHDWCKYVF-NH2; disulfide 2-17, 9-23, 16-30) |  |  |  | IC50 (hNav1.7; use-dependent block, hNav1.7): > 5 µM; IC50 (hNav1.5; IonWorks Quattro, use-dependent block, hNav1.5, read-out: IWQ Use Nav1.5): 39 µM; IC50 (hNav1.3; use-dependent block, hNav1.3): > 5 µM
CC[C@H](C)[C@@H]1NC(=O)[C@@H]2CSSC[C@@H]3NC(=O)[C@H](C(C)C)NC(=O)[C@H](Cc4ccc(C(=O)O)cc4)NC(=O)[C@H](CC(N)=O)NC(=O)[C@@H]4CCCN4C(=O)[C@H](CCCNC(=N)N)NC(=O)[C@H](CSSC[C@H](NC(=O)[C@@H](N)CC(=O)O)C(=O)N[C@@H](CC(C)C)C(=O)NCC(=O)N[C@@H](Cc4ccccc4)C(=O)N[C@@H](CCSC)C(=O)N[C@@H](CCCNC(=N)N)C(=O)N[C@@H](CCCCN)C(=O)N2)NC(=O)[C@H](CSSC[C@@H](C(=O)N[C@@H](CCCCN)C(=O)N[C@@H](Cc2ccc(O)cc2)C(=O)N[C@H](C(=O)N[C@@H](Cc2ccccc2)C(N)=O)C(C)C)NC(=O)[C@H](Cc2c[nH]c4ccccc24)NC(=O)[C@H](CCCCN)NC(=O)[C@H](Cc2c[nH]cn2)NC(=O)[C@H]([C@@H](C)O)NC(=O)[C@H](CCCNC(=N)N)NC(=O)[C@H](CO)NC3=O)NC(=O)[C@H](CCCCN)NC(=O)[C@H](CC(=O)O)NC(=O)[C@H](CC(N)=O)NC(=O)[C@H](CC(=O)O)NC(=O)[C@@H]2CCCN2C1=O [compound 317] (H-DCLGFMRKCIPDNDKCCRPN[Phe(4-COOH)]VCSRTHKWCKYVF-NH2; disulfide 2-17, 9-23, 16-30) | 3.98 | 8.9 | 3.67 | 
CC[C@H](C)[C@@H]1NC(=O)[C@@H]2CSSC[C@@H]3NC(=O)[C@H](Cc4ccccc4)NC(=O)[C@H](CC(C)C)NC(=O)[C@H](CC(N)=O)NC(=O)[C@@H]4CCCN4C(=O)[C@H](CCCNC(=N)N)NC(=O)[C@H](CSSC[C@H](NC(=O)[C@@H](N)CC(=O)O)C(=O)N[C@@H](CC(C)C)C(=O)NCC(=O)N[C@@H](Cc4ccccc4)C(=O)N[C@@H](CCSC)C(=O)N[C@@H](CCCNC(=N)N)C(=O)N[C@@H](CCCCN)C(=O)N2)NC(=O)[C@H](CSSC[C@@H](C(=O)N[C@@H](CCCCN)C(=O)N[C@@H](Cc2ccc(O)cc2)C(=O)N[C@H](C(=O)N[C@@H](Cc2ccccc2)C(N)=O)C(C)C)NC(=O)[C@H](Cc2c[nH]c4ccccc24)NC(=O)[C@H](CCCCN)NC(=O)[C@H](Cc2c[nH]cn2)NC(=O)[C@H]([C@@H](C)O)NC(=O)[C@H](CCCNC(=N)N)NC(=O)[C@H](CO)NC3=O)NC(=O)[C@H](CCCCN)NC(=O)[C@H](CC(=O)O)NC(=O)[C@H](CC(N)=O)NC(=O)[C@H](CC(=O)O)NC(=O)[C@@H]2CCCN2C1=O [compound 319] (H-DCLGFMRKCIPDNDKCCRPNLFCSRTHKWCKYVF-NH2; disulfide 2-17, 9-23, 16-30) | 0.7 |  | 1.02 | IC50 (hNav1.5; IWQ Use Nav1.5 (μM)): > 5 µM
CSCC[C@@H]1NC(=O)[C@H](Cc2ccccc2)NC(=O)CNC(=O)[C@H](CC(C)C)NC(=O)[C@@H](NC(=O)[C@@H](N)CC(=O)O)CSSC[C@@H]2NC(=O)[C@@H]3CSSC[C@@H](C(=O)N[C@@H](CCCCN)C(=O)N[C@@H](Cc4ccc(O)cc4)C(=O)N[C@H](C(=O)N[C@@H](Cc4ccccc4)C(N)=O)C(C)C)NC(=O)[C@H](Cc4c[nH]c5ccccc45)NC(=O)[C@H](CCCCN)NC(=O)[C@H](Cc4cnc[nH]4)NC(=O)[C@H]([C@@H](C)O)NC(=O)[C@H](CCCNC(=N)N)NC(=O)[C@H](CO)NC(=O)[C@H](CSSC[C@H](NC(=O)[C@H](CCCCN)NC(=O)[C@H](CCCNC(=N)N)NC1=O)C(=O)N[C@@H](CCCCN)C(=O)N1CCC[C@H]1C(=O)N[C@@H](CC(=O)O)C(=O)N[C@@H](CC(N)=O)C(=O)N[C@@H](CC(=O)O)C(=O)N[C@@H](CCCCN)C(=O)N3)NC(=O)[C@H](C(C)C)NC(=O)[C@H](CC(C)C)NC(=O)[C@H](CC(N)=O)NC(=O)[C@@H]1CCCN1C(=O)[C@H](CCCNC(=N)N)NC2=O [compound 41] (H-DCLGFMRKCKPDNDKCCRPNLVCSRTHKWCKYVF-NH2; disulfide 2-17, 9-23, 16-30) | 0.24 | 9 | 0.15 | 
CC[C@H](C)[C@@H]1NC(=O)[C@@H]2CSSC[C@@H]3NC(=O)[C@H](C(C)C)NC(=O)[C@H](CC(C)C)NC(=O)[C@H](CC(N)=O)NC(=O)[C@@H]4CCCN4C(=O)[C@H](CCCNC(=N)N)NC(=O)[C@H](CSSC[C@H](NC(=O)[C@@H](N)CC(=O)O)C(=O)N[C@@H](CC(C)C)C(=O)NCC(=O)N[C@@H](Cc4ccccc4)C(=O)N[C@@H](CCSC)C(=O)N[C@@H](CCCNC(=N)N)C(=O)N[C@@H](CCCCN)C(=O)N2)NC(=O)[C@H](CSSC[C@@H](C(=O)N[C@@H](CCCCN)C(=O)N[C@@H](CO)C(=O)N[C@H](C(=O)N[C@@H](Cc2ccccc2)C(N)=O)C(C)C)NC(=O)[C@H](Cc2c[nH]c4ccccc24)NC(=O)[C@H](CCCCN)NC(=O)[C@H](Cc2c[nH]cn2)NC(=O)[C@H]([C@@H](C)O)NC(=O)[C@H](CCCNC(=N)N)NC(=O)[C@H](CO)NC3=O)NC(=O)[C@H](CCCCN)NC(=O)[C@H](CC(=O)O)NC(=O)[C@H](CC(N)=O)NC(=O)[C@H](CC(=O)O)NC(=O)[C@@H]2CCCN2C1=O [compound 382] (H-DCLGFMRKCIPDNDKCCRPNLVCSRTHKWCKSVF-NH2; disulfide 2-17, 9-23, 16-30) |  |  |  | IC50 (hNav1.7; Table 25, use, […]): 3.95 µM; IC50 (hNav1.5; Table 25, IonWorks Quattro, use, […], read-out: IWQ Use Nav1.5): > 5 µM; IC50 (hNav1.3; Table 25, use, […]): 1.47 µM
